Results taken from ChEMBL document CHEMBL5149976, “β-Carbolines as potential anticancer agents” (Eur J Med Chem, 2021).
In brackets after ≈: the same amount, converted by molar mass.

Experiments:
CCRF S-180 = test: Antitumor activity against mouse CCRF S-180 cells allografted in ICR mouse assessed as tumor growth inhibition at 0.1 micromol/kg, iv administered for 7 days relative to control; type: functional; conditions: dose 0.1 µmol/kg, time 7 day
[1] = molecular target: DNA topoisomerase 1 (Homo sapiens) (UniProt P11387); test: Inhibition of topoisomerase 1 (unknown origin) assessed as relaxation of pBR322 plasmid DNA and incubated for 10 mins
[2] = tested on: Panel NCI-60 (60 carcinoma cell lines); test: Cytotoxicity against human Panel NCI-60 (60 carcinoma cell lines) assessed as cell growth inhibition; type: functional, cell-based
[3] = Cytotoxicity against mouse C19 cells assessed as cell growth inhibition by MTT assay; type: functional, cell-based
Calf thymus DNA [4] = test: Binding affinity to calf thymus DNA assessed as binding constant by spectrophotometric analysis; type: nucleic-acid assay; conditions: Bos taurus
Calf thymus DNA [5] = test: Stabilization of calf thymus DNA assessed as change in melting temperature; type: nucleic-acid assay; conditions: Bos taurus
MT4 = test: Cytotoxicity against human MT4 cells; type: functional; conditions: read-out: ED50 (the source's name)
L1210 [6] = test: Cytotoxicity against mouse L1210 cells; type: functional; conditions: read-out: ED50 (the source's name)
MOLT-4F = test: Cytotoxicity against human MOLT-4F cells; type: functional; conditions: read-out: ED50 (the source's name)
P388 [7] = test: Cytotoxicity against mouse P388 cells; type: functional, cell-based; conditions: read-out: ED50 (the source's name)
A549 [8] = test: Cytotoxicity against human A549 cells assessed as cell growth inhibition by MTT assay; type: functional, cell-based
DU-145 = test: Cytotoxicity against human DU-145 cells assessed as cell growth inhibition by MTT assay; type: functional, cell-based; conditions: pooled result: one value given for 5 cell lines, strains, targets or settings
A-375 = test: Cytotoxicity against human A-375 cells assessed as cell growth inhibition; type: functional, cell-based
LoVo = test: Cytotoxicity against human LoVo cells assessed as cell growth inhibition; type: functional, cell-based
L5178Y = test: Cytotoxicity against mouse L5178Y cells assessed as cell growth inhibition; type: functional, cell-based
L1210 [9] = test: Cytotoxicity against mouse L1210 cells assessed as cell growth inhibition; type: functional, cell-based
HeLa [10] = test: Cytotoxicity against human HeLa cells assessed as cell growth inhibition; type: functional, cell-based
MCF7 = test: Cytotoxicity against human MCF7 cells assessed as cell growth inhibition; type: functional, cell-based
HOP-92 = test: Anticancer activity against human HOP-92 cells; type: functional
M14 = test: Anticancer activity against human M14 cells; type: functional
HT-29 [11] = test: Anticancer activity against human HT-29 cells; type: functional
MDA-MB-231 = test: Anticancer activity against human MDA-MB-231 cells; type: functional
OVCAR-3 [12] = test: Anticancer activity against human OVCAR-3 cells; type: functional
UACC-62 = test: Anticancer activity against human UACC-62 cells; type: functional
KB = test: Cytotoxicity against human KB cells; type: functional, cell-based
HGC-27 = test: Cytotoxicity against human HGC-27 cells assessed as inhibition of cell growth measured after 48 hrs by MTT assay; type: functional, cell-based; conditions: HGC-27, 48 h
HT-29 [13] = test: Cytotoxicity against human HT-29 cells assessed as inhibition of cell growth measured after 48 hrs by MTT assay; type: functional, cell-based; conditions: HT-29, 48 h
HT-29 [14] = test: Cytotoxicity against human HT-29 cells assessed as cell growth inhibition and measured after 5 hrs by MTT assay; type: functional, cell-based; conditions: HT-29, 5 h
P388 [15] = test: Cytotoxicity against mouse P388 cells assessed as cell growth inhibition and measured after 5 hrs by MTT assay; type: functional, cell-based; conditions: P388, 5 h
A549 [16] = test: Cytotoxicity against human A549 cells assessed as cell growth inhibition and measured after 5 hrs by MTT assay; type: functional, cell-based; conditions: A549, 5 h
[17] = Cytotoxicity against human KB-16 cells assessed as cell growth inhibition and measured after 5 hrs by MTT assay; type: functional, cell-based; conditions: KB16, 5 h
Calu-1 = test: Anti-ferroptotic activity against human Calu-1 cells assessed as cell growth inhibition; type: functional, cell-based
[18] = Anti-ferroptotic activity against human BJeLR cells assessed as cell growth inhibition; type: functional, cell-based
OVCAR-3 [19] = test: Cytotoxicity against human OVCAR-3 cells assessed as cell growth inhibition and measured after 48 hrs; type: functional, cell-based; conditions: OVCAR-3, 48 h
U-251 = test: Cytotoxicity against human U-251 cells assessed as cell growth inhibition and measured after 48 hrs; type: functional, cell-based; conditions: U-251, 48 h
PC-3 = test: Cytotoxicity against human PC-3 cells assessed as cell growth inhibition and measured after 48 hrs; type: functional, cell-based; conditions: PC-3, 48 h
HepG2 = test: Cytotoxicity against human HepG2 cells assessed as cell growth inhibition and measured after 24 hrs by MTT assay; type: functional, cell-based; conditions: HepG2, 24 h
HeLa [20] = test: Cytotoxicity against human HeLa cells assessed as cell growth inhibition and measured after 24 hrs by MTT assay; type: functional, cell-based
[21] = In vivo antitumor activity against mouse Lewis lung carcinoma cells xenografted in mouse model assessed as inhibition of cell growth relative to control; type: functional
CCRF-CEM = test: Cytotoxicity against human CCRF-CEM cells assessed as cell growth inhibition; type: functional, cell-based
RPMI-8226 = test: Cytotoxicity against human RPMI-8226 cells assessed as cell growth inhibition; type: functional, cell-based
NCI-H1299 = test: Cytotoxicity against human NCI-H1299 cells assessed as cell growth inhibition; type: functional, cell-based
B16 = test: Cytotoxicity against mouse B16 cells assessed as cell growth inhibition by MTT assay; type: functional, cell-based

Chain of DNA topoisomerase 1 (Homo sapiens) (P11387 whole entry): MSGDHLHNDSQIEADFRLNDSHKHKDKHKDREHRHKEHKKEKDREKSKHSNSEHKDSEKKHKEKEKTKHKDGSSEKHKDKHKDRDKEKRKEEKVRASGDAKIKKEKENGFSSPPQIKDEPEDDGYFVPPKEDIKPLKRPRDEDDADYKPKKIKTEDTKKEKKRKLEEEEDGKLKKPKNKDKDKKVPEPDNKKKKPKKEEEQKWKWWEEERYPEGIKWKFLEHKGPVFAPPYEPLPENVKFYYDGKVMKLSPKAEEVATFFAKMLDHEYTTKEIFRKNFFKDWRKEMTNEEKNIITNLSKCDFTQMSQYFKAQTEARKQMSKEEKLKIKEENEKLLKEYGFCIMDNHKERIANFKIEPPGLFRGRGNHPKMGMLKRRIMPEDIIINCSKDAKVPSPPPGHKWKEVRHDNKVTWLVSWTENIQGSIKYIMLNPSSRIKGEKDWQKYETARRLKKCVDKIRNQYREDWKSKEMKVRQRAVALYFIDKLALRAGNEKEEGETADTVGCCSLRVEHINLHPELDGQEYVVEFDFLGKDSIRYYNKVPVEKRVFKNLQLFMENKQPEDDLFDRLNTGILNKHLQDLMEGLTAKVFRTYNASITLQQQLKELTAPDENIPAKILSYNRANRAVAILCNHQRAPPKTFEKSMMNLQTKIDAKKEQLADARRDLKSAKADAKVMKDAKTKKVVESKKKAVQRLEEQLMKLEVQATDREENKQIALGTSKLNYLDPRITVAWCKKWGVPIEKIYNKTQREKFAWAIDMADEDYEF

Compound: CC[C@H](C)[C@H](NC(=O)[C@H](Cc1c[nH]c2ccccc12)NC(=O)[C@H](Cc1c[nH]c2ccccc12)NC(=O)c1cc2c([nH]c3ccccc32)c(-c2ccc(O)c(OC)c2)n1)C(=O)OCc1ccccc1
- TGI (CCRF S-180): 63.4%

Compound: Cc1nccc2c1[nH]c1ccccc12
- ED50 [1]: 23.8 µg/mL (≈ 131 µM)

Compound: COc1ccc(-c2nc(-c3nc4ccc(F)cc4[nH]3)cc3c2[nH]c2ccccc23)cc1
- IC50 [2]: 1900 nM

Compound: c1ccc2c(-c3nccc4c3[nH]c3ccccc34)c[nH]c2c1
- IC50 [3]: 15600 nM

Compound: NCCCCNC(=O)c1cc2c(cn1)[nH]c1ccccc12
- K (Calf thymus DNA [4]): 4.5 10^4/M
- ΔTm (Calf thymus DNA [5]): 5.7 °C

Compound: c1ccc(-c2nc(-c3nc4ccccc4[nH]3)cc3c2[nH]c2ccccc23)cc1
- IC50 [2]: 360 nM

Compound: Fc1ccc(-c2nc(-c3nc4ccc(Cl)cc4[nH]3)cc3c2[nH]c2ccccc23)cc1
- IC50 [2]: 1900 nM

Compound: NC1CSCON2CCC3c4ccccc4NC3C12 (stereo not given)
- EC50 (MT4): 5 nM
- EC50 (L1210 [6]): 5 nM
- EC50 (MOLT-4F): 5 nM
- EC50 (P388 [7]): 5 nM

Compound: O=C(/C=C/c1cc2c([nH]c3ccccc32)c(-c2ccc(F)cc2)n1)c1ccco1
- IC50 (A549 [8]): 1860 nM
- IC50 (DU-145): 1860 nM

Compound: c1ccc2c(c1)[nH]c1c(CNCCOCCOCCNCc3nccc4c3[nH]c3ccccc34)nccc12
- IC50 (A-375): 2000 nM

Compound: CCCCc1nc(C(=O)O)cc2c1[nH]c1ccccc12
- IC50 (LoVo): 11000 nM

Compound: Cn1c2cnccc2c2c(Br)c(O)ccc21
- IC50 (L5178Y): 420 nM
- IC50 (L1210 [9]; Mus musculus, L1210): 420 nM
- IC50 (L1210 [9]; l1210): 360 nM

Compound: COc1ccccc1-c1c(-c2ccccc2)ncc2[nH]c3ccccc3c12
- IC50 (HeLa [10]): 35600 nM
- IC50 (MCF7): 35300 nM

Compound: COc1ccc2nc(-c3cc4c([nH]c5ccccc54)c(-c4ccc(F)c(F)c4)n3)[nH]c2c1
- IC50 [2]: 1900 nM

Compound: CCN(CC)CCCNc1nccc2c1[nH]c1ccccc12
- GI50 (HOP-92): 380 nM
- GI50 (M14): 2000 nM
- GI50 (HT-29 [11]): 2700 nM
- GI50 (MDA-MB-231): 5200 nM
- GI50 (OVCAR-3 [12]): 1600 nM
- GI50 (UACC-62): 2300 nM

Compound: Oc1ccc2[nH]c3c(C4=C[C@@]5(O)CC/C=C\CCCCN6CC[C@@H]4[C@]4(C[C@@H]7/C=C\CCCCN7[C@H]45)C6)nccc3c2c1 [MANZAMINE Y]
- IC50 (L1210 [9]; Mus musculus, L1210): 1500 nM
- IC50 (KB): 2500 nM

Compound: COc1cc(-c2nc(Cn3cc(CN4C(=O)c5ccc(C)cc5C4=O)nn3)cc3c2[nH]c2ccccc23)cc(OC)c1OC
- IC50 (HGC-27): < 10000 nM
- IC50 (HT-29 [13]): 3670 nM

Compound: CCn1c2ccccc2c2cc(C3NCCc4c3[nH]c3ccccc43)ccc21 (stereo not given)
- IC50 (HT-29 [14]): < 0.001 µg/mL
- IC50 (P388 [15]): < 0.001 µg/mL
- IC50 (A549 [16]): < 0.001 µg/mL
- IC50 [17]: < 0.001 µg/mL

Compound: COC(=O)c1ccc([C@H]2c3[nH]c4ccccc4c3C[C@H](C(=O)OC)N2C(=O)CCl)cc1
- IC50 (Calu-1): 20 nM
- IC50 [18]: 2000 nM

Compound: CCN(CC)c1ccc(C2NCCc3c2[nH]c2ccccc32)cc1 (stereo not given)
- IC50 (HT-29 [14]): 0.07 µg/mL (≈ 0.219 µM)
- IC50 (P388 [15]): 0.07 µg/mL (≈ 0.219 µM)
- IC50 (A549 [16]): 0.07 µg/mL (≈ 0.219 µM)
- IC50 [17]: 0.07 µg/mL (≈ 0.219 µM)

Compound: c1ccc2c(c1)[nH]c1cnccc12
- ED50 [1]: 34.4 µg/mL (≈ 205 µM)

Compound: O=Cc1cc2c([nH]c3ccccc32)c(-c2ccccc2)n1
- IC50 [2]: 360 nM

Compound: COC(=O)[C@@H]1Cc2c([nH]c3ccccc23)[C@@H](c2ccccc2)N1
- IC50 [2]: 360 nM

Compound: COc1ccc(-c2nc(C3=N/C(=C\c4ccccc4)C(=O)O3)cc3c2[nH]c2ccccc23)cc1
- IC50 (OVCAR-3 [19]): 1070 nM
- IC50 (U-251): 480 nM
- IC50 (PC-3): 1500 nM

Compound: COc1cc(-c2nc(C(=O)N[C@@H](Cc3c[nH]c4ccccc34)C(=O)N[C@@H](Cc3c[nH]c4ccccc34)C(=O)N[C@@H](CO)C(=O)OCc3ccccc3)cc3c2[nH]c2ccccc23)ccc1O
- TGI (CCRF S-180): 62.9%

Compound: Cc1ccc(C[C@H](N)[C@@H]2NCCc3c2[nH]c2ccc(Br)cc32)cc1
- IC50 (L5178Y): 3100 nM
- IC50 (L1210 [9]; Mus musculus, L1210): 3100 nM
- IC50 (L1210 [9]; l1210): 3400 nM

Compound: CNC(CSC)c1nccc2c1[nH]c1ccc(O)c(Br)c12 (stereo not given)
- IC50 (L5178Y): 1800 nM
- IC50 (L1210 [9]; Mus musculus, L1210): 1800 nM
- IC50 (L1210 [9]; l1210): 2400 nM

Compound: COC(=O)c1cc2c([nH]c3ccccc32)c(-c2ccc(OCc3cn(-c4cccc(Cl)c4Cl)nn3)cc2)n1
- IC50 (HepG2): 32000 nM
- IC50 (HeLa [20]): 46000 nM

Compound: CCCCn1c2ccccc2c2ccnc(C(=O)OCCCCCCOC(=O)c3nccc4c5ccccc5n(CCCC)c34)c21
- inhibition (INH) [21]: 64.2%

Compound: COc1ccc2c(c1)C1CCN3OCSCC(N)C3C1N2 (stereo not given)
- EC50 (MT4): < 5 nM
- EC50 (L1210 [6]): < 5 nM
- EC50 (MOLT-4F): < 5 nM
- EC50 (P388 [7]): < 5 nM

Compound: COc1cccc2c1C(=O)c1c(O)c3c(c(O)c1C2=O)C[C@@](O)(C(=O)CO)C[C@@H]3O[C@H]1C[C@H](N)[C@H](O)[C@H](C)O1.Cl [DOXORUBICIN HYDROCHLORIDE]
- TGI (CCRF S-180): 61.1%

Compound: COc1ccc(-c2nc(-c3nc4ccc(OC)cc4[nH]3)cc3c2[nH]c2ccccc23)cc1
- IC50 (CCRF-CEM): 880 nM
- IC50 (RPMI-8226): 360 nM
- IC50 [2]: 1900 nM

Compound: c1ccc2c(c1)[nH]c1c(CNCCOCCNCc3nccc4c3[nH]c3ccccc34)nccc12
- IC50 (NCI-H1299): 1600 nM

Compound: O[C@]12C=C(C3=NCCc4c3[nH]c3ccccc43)[C@@H]3CCN(CCCC/C=C\CC1)C[C@@]31C[C@@H]3/C=C\CCCCN3[C@H]12 [3,4-DIHYDROMANZAMINE A]
- IC50 (L1210 [9]; Mus musculus, L1210): 4800 nM
- IC50 (KB): 610 nM

Compound: CC(=O)N1N=C(c2ccco2)CC1c1cc2c([nH]c3ccccc32)c(-c2ccc(F)cc2)n1 (stereo not given)
- IC50 (A549 [8]): 1940 nM
- IC50 (DU-145): 1940 nM

Compound: O=C(/C=C/C1Cc2c([nH]c3ccccc23)C(c2ccc(F)cc2)N1)c1ccc(F)cc1 (stereo not given)
- IC50 (A549 [8]): 5650 nM
- IC50 (B16): 7340 nM

Compound: COc1ccc(-c2c(-c3ccccc3)ncc3[nH]c4ccccc4c23)cc1
- IC50 (HeLa [10]): 33600 nM
- IC50 (MCF7): 20800 nM
